Test results from patent US7919577B2, “Adrenocorticotropic hormone analogs and related methods” (Colorado Seminary, priority 2004, dated 2011).
No end group written: not given here.

System: dexamethasone-suppressed male FVB/N mice
Assay: in vivo Serum Corticosteroid Inhibition Assay (Example 2)
Design: species or system mouse
Conditions: for serum corticosterone at 180 minutes: blood one hour later; for reduction in serum corticosterone levels: ACTH alone normalized to 100%, FIG. 2; for corticosterone induction as percent of that of wildtype ACTH: 1 hour after last peptide injection
Experimental: The in vivo Serum Corticosteroid Inhibition Assay can include sequential administration of the test compound and the corticosteroid-producing compound by the following steps: first, an agent to suppress endogenous ACTH production was administered to a mouse subject, such as an intraperitoneal injection of dexamethasone; second, after waiting a suitable period of time for suppression of endogenous ACTH production (e.g., 1.5-2.0 hours), a test compound was administered to the mouse by a suitable method, such as intraperitoneal injection; third, after waiting a suitable period of time (e.g., 1 hour) for action of the test compound, a compound with corticosteroid-producing activity can be administered to the mouse by a suitable method, such as intraperitoneal injection; and fourth, after waiting a suitable period of time for the biological activity of both administered compounds to occur (e.g., 1 hour), a blood sample was taken from the subject and the level of serum corticosterone was determined by a suitable method, such as a competitive radioimmunoassay using ^125I RIA kit (ICN, Costa Mesa, Calif.). Optionally, steps two and three can be reversed (administering the corticosteroid-producing compound first, followed by administration of the test compound). The in vivo Serum Corticosteroid Inhibition Assay can also include co-administration of the test compound and the corticosteroid-producing compound by the following steps: first, an agent to suppress endogenous ACTH production was administered to a mouse subject, such as an intraperitoneal injection of dexamethasone; second, after waiting a suitable period of time for suppression of endogenous ACTH production (e.g., 1.5-2.0 hours), the corticosteroid-producing compound and a test compound were co-administered to the mouse by a suitable method, such as intraperitoneal injection; and third, after waiting a suitable period of time for the biological activity of both administered compounds to occur (e.g., 1 hour), a blood sample was taken from the subject and the level of serum corticosterone was determined by a suitable method, such as a competitive radioimmunoassay using ^125I RIA kit (ICN, Costa Mesa, Calif.). Also, in some embodiments, the first step in any in vivo Serum Corticosteroid Inhibition Assay can be replaced by a measurement of the initial endogenous corticosteroid or corticosteroid level in the blood of the subject in the manner of step four, instead of administering the agent to suppress ACTH production. Example 2 describes murine in vivo Serum Corticosteroid Inhibition Assays in detail.
A series of separate in vivo Serum Corticosteroid Inhibition Assays were performed to identify ACTH analogs that inhibit ACTH adrenal hormone production in vivo. The serum corticosterone levels of dexamethasone-suppressed mice were measured as described in Example 2 after administration of (1) ACTH (corticosteroid-producing compound), (2) an ACTH analog (test compound) followed by subsequent administration of ACTH, (3) a combination of ACTH and the ACTH analog and (4) the ACTH analog alone.
The in vivo Serum Corticosteroid Inhibition Assay was performed according the following method. The ACTH analog test compounds, such as those showing low activities in Example 1, were tested for their abilities to inhibit adrenal hormone production induced by unmodified ACTH.
First, two to three month-old male FVB/N mice from our colony, five per group, were injected intraperitoneally with dexamethasone (0.4 mg/0.1 ml PBS per mouse; Sigma, St. Louis, Mo.) to suppress their endogenous ACTH production.
Second, ninety to one hundred twenty minutes later, animals were injected subcutaneously between the shoulder blades with wild type ACTH and/or test ACTH analog peptides (1 μg/0.1 mL PBS/0.5% BSA) or with vehicle alone (0.1 mL PBS/0.5% BSA). […]

## N-Ser^1-Tyr-Ser-Met-Glu^5-His-Phe-Arg-Trp-Gly^10-Lys-Pro-Val-Gly-Lys^15-Arg-Ala-Ala-Trp-Val^20-Lys-Val-Tyr-Pro-Ac (SYSMEHFRWGKPVGKRAAWVKVYP; not fully specified; printed as N-Ser1-Tyr-Ser-Met-Glu5-His-Phe-Arg-Trp-Gly10-Lys-Pro-Val-Gly-Lys15-Arg-Ala-Ala-Trp-Val20-Lys-Val-Tyr-Pro-Ac) [AT814]
ACTH analog alone 120 minutes after dexamethasone (AT), listed as (KKRRP15-19KRAAW) mACTH(1-24)
  serum corticosterone at 180 minutes: about 7±7 ng/mL
ACTH analog alone 120 minutes after dexamethasone (AT), listed as (KKRRP15-19KRAAW)mACTH(1-24)
  serum corticosterone at 180 minutes: 7 ± 7 ng/mL
ACTH analog at 90 minutes, mACTH(1-24) at 120 minutes after dexamethasone (AT90-ACTH120), listed as (KKRRP15-19KRAAW) mACTH(1-24)
  serum corticosterone at 180 minutes: 175 ± 27 ng/mL
ACTH analog at 90 minutes, mACTH(1-24) at 120 minutes after dexamethasone (AT90-ACTH120), listed as (KKRRP15-19KRAWW)mACTH(1-24)
  serum corticosterone at 180 minutes: 175 ± 27 ng/mL
ACTH analog together with mACTH(1-24) at 120 minutes after dexamethasone ((AT + ACTH)120)
  serum corticosterone at 180 minutes: 51 ± 8 ng/mL
ACTH analog together with mACTH(1-24) at 120 minutes after dexamethasone ((AT + ACTH)120), listed as (KKRRP15-19KRAAW)mACTH(1-24)
  serum corticosterone at 180 minutes: 51 ± 8 ng/mL
Analog 30 minutes before ACTH
  reduction in serum corticosterone levels: ~65%
Analog concurrently with ACTH
  reduction in serum corticosterone levels: ~90%
Applied 30 minutes before the ACTH injection
  corticosterone induction as percent of that of wildtype ACTH: 35%
Applied at the same time as the ACTH injection
  corticosterone induction as percent of that of wildtype ACTH: 10%
